In the test the target is T1, IDH R132C (Homo sapiens, UniProt O75874, R132C).
T1 construct: expressed in transfected cells; host or cells: U87 cells
As to the kind of experiment: Detection of 2-HG in supernatant of U87-IDH R132C cells. It is filed as cell-based. The conditions noted are these: 72 h, LC-MS-MS, vs control; for inhibition at 0.001 µM: 1 nM compound, read-out: Inhibition rate of compounds on 2-HG in the supernatant of U87-IDH R132C cells, 1 nM; for inhibition at 0.01 µM: 10 nM compound, read-out: Inhibition rate of compounds on 2-HG in the supernatant of U87-IDH R132C cells, 10 nM; for inhibition at 0.1 µM: 100 nM compound, read-out: Inhibition rate of compounds on 2-HG in the supernatant of U87-IDH R132C cells, 100 nM. As to the method: U87 cells overexpressing the IDH R132C mutation were seeded in a 48-well plate at 50,000 cells/well. After the cells were incubated overnight for adhesion, the supernatant was removed. The cell culture media containing serially diluted compounds were added, and the cells were incubated for 72 h. After 72 h, the cultures were collected and diluted 10-fold with water, and acetonitrile was added to extract the metabolites. The 2-HG content in the cultures was analyzed by LC-MS-MS, and the percentage inhibition of compounds on 2-HG in the supernatant was calculated as compared with the control.

This note sets out measurements from patent US12559505B2, “IDH mutant inhibitor and use thereof” (WIGEN BIOMEDICINE TECHNOLOGY (SHANGHAI) CO., LTD., priority 2020, dated 2026).

Some results are limits rather than exact numbers.

T1 sequence (O75874 whole entry R132C): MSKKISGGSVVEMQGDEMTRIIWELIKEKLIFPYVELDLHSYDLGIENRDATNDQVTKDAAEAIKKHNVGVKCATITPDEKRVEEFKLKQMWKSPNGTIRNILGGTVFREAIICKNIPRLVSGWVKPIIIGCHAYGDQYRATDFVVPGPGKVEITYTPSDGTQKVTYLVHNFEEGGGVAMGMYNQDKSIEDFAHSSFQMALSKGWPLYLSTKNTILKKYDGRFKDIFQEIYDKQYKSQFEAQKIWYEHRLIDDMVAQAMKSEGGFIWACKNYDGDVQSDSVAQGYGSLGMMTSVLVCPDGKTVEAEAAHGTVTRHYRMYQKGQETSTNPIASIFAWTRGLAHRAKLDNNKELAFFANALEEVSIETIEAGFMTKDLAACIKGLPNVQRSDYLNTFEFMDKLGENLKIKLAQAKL

The inhibition is the relative decrease from the control value, in per cent. Consider `C=CC(=O)N1CC2(C1)CN(C(CC1CCC1)c1ccc([C@H](C)Nc3ncc4c(n3)N(CC)C(=O)OC4)cc1)C2` (stereo partly drawn) [Compound 63], for which the inhibition at 0.001 µM lay in the range of 30 to 60%, the inhibition at 0.01 µM is greater than 90% and the inhibition at 0.1 µM was greater than 90%.
For `C=CC(=O)N1CC2(C1)CN(C(CC1(C)CC1)c1ccc([C@H](C)Nc3ncc4c(n3)N(CC)C(=O)OC4)cc1)C2` (stereo partly drawn) [Compound 65], the inhibition at 0.001 µM was 30 to 60%, the inhibition at 0.01 µM is greater than 90% and the inhibition at 0.1 µM is greater than 90%.
Regarding `C=CC(=O)N1CC2(C1)CN([C@@H](CC13CC(C1)C3)c1ccc([C@H](C)Nc3ncc4c(n3)N(CC)C(=O)OC4)cc1)C2` [Compound 66-1], the inhibition at 0.001 µM lay within 60 to 90%, the inhibition at 0.01 µM is greater than 90% and the inhibition at 0.1 µM is greater than 90%.
Consider `C=CC(=O)N1CC2(C1)CN([C@H](CC13CC(C1)C3)c1ccc([C@H](C)Nc3ncc4c(n3)N(CC)C(=O)OC4)cc1)C2` [Compound 66-2], for which the inhibition at 0.001 µM fell in the range of 30 to 60%, the inhibition at 0.01 µM lay within 60 to 90% and the inhibition at 0.1 µM is greater than 90%.
The like results for `C=CC(=O)N1CC2(C1)CN(C(CC13CC(C1)C3)c1ccc([C@H](C)Nc3ncc4c(n3)N(CC)C(=O)OC4)cc1)C2` (stereo partly drawn) [Compound 66] were, in that order, 60 to 90%, greater than 90% and greater than 90%.
On to `C=CC(=O)N1CCN(C(CC2(C)CC2)c2ccc([C@H](C)Nc3ncc4c(n3)N(CC)C(=O)NC4)cc2)CC1` (stereo partly drawn) [Compound 69], for which the inhibition at 0.001 µM lay within 30 to 60%, the inhibition at 0.01 µM was greater than 90% and the inhibition at 0.1 µM is greater than 90%.
As to `C=CC(=O)N1CCN([C@@H](CC23CC(C2)C3)c2ccc([C@H](C)Nc3ncc4c(n3)N(CC)C(=O)NC4)cc2)CC1` [Compound 70-1], the inhibition at 0.001 µM fell in the range of 60 to 90%, the inhibition at 0.01 µM is greater than 90% and the inhibition at 0.1 µM was greater than 90%.
As to `C=CC(=O)N1CCN([C@H](CC23CC(C2)C3)c2ccc([C@H](C)Nc3ncc4c(n3)N(CC)C(=O)NC4)cc2)CC1` [Compound 70-2], the inhibition at 0.001 µM fell in the range of 60 to 90%, the inhibition at 0.01 µM is 60 to 90% and the inhibition at 0.1 µM was greater than 90%.
For `C=CC(=O)N1CC2(C1)CN(C(CC1(C)CC1)c1ccc([C@H](C)Nc3ncc4c(n3)N(CC)C(=O)NC4)cc1)C2` (stereo partly drawn) [Compound 71], the inhibition at 0.001 µM lay within 30 to 60%, the inhibition at 0.01 µM was greater than 90% and the inhibition at 0.1 µM is greater than 90%.
In the case of `C=CC(=O)N1CC2(C1)CN([C@@H](CC13CC(C1)C3)c1ccc([C@H](C)Nc3ncc4c(n3)N(CC)C(=O)NC4)cc1)C2` [Compound 72-1], the inhibition at 0.001 µM lay within 60 to 90%, the inhibition at 0.01 µM is greater than 90% and the inhibition at 0.1 µM is greater than 90%.
For the molecule `C=CC(=O)N1CC2(C1)CN([C@H](CC13CC(C1)C3)c1ccc([C@H](C)Nc3ncc4c(n3)N(CC)C(=O)NC4)cc1)C2` [Compound 72-2], the inhibition at 0.001 µM lay within 30 to 60%, the inhibition at 0.01 µM lay within 60 to 90% and the inhibition at 0.1 µM is greater than 90%.
Regarding `C=CC(=O)N1CC2(C1)CN(C(CC13CC(C1)C3)c1ccc([C@H](C)Nc3ncc4c(n3)N(CC)C(=O)NC4)cc1)C2` (stereo partly drawn) [Compound 72], the inhibition at 0.001 µM was 60 to 90%, the inhibition at 0.01 µM was greater than 90% and the inhibition at 0.1 µM is greater than 90%.
As for `C=CC(=O)N1CCN(C(CC)c2ccc([C@H](C)Nc3ncc4c(n3)N(C(C)C)C(=O)NC4)cc2)CC1` (stereo partly drawn) [Compound 80], the inhibition at 0.001 µM was 30 to 60%, the inhibition at 0.01 µM was in the range of 60 to 90% and the inhibition at 0.1 µM is greater than 90%.
With `C=CC(=O)N1CCN(C(CC(C)C)c2ccc([C@H](C)Nc3ncc4c(n3)N(C(C)C)C(=O)NC4)cc2)CC1` (stereo partly drawn) [Compound 81], the inhibition at 0.001 µM lay within 30 to 60%, the inhibition at 0.01 µM lay within 60 to 90% and the inhibition at 0.1 µM is greater than 90%.
